# Counter-ions that a name gives are not always drawn.
# Columns and labels:
# [1] = Dissolution test 1: solubility by paddle method in pH 6.0+0.01% SDS medium; type: physicochemical
# Protocol: Dissolution tests of experimental group 1 to experimental group 28 produced by spray drying or hot melt extrusion, control group lurasidone HCl and lurasidone are performed to analyze the solubility of each experimental group and control group lurasidone HCl and lurasidone. The dissolution test is performed by paddle method in 500 mL of medium with a pH value of 6.0+0.01% SDS, in which a rotation speed is 100 rpm and a sampling time is 60 minutes.
# For comparing the applicability of the carriers suitable for solid dispersion including lurasidone, solid dispersion of comparative group 1 (including crospovidone, a kind of common carrier ingredient) is prepared according to Example 1.2 (HME) and the weight ratio of table 12, and the solubility is tested according the abovementioned method of Example 1.3.1.
# [2] = Animal test: pharmacokinetics in fasted rats; type: in vivo; settings: male, Sprague-Dawley, rat, plasma; rats under fasting state; dose equal to 10 mg/kg lurasidone HCl
# Protocol: Lurasidone HCl is used as control group, experimental groups 14-17, 22 and 28 are used as tested group, the pharmacokinetics of each group is evaluated in male Sprague-Dawley rats.
# Specifically, control group and experimental groups 14-17, 22 and 28 are administrated to rats under fasting state, respectively, in which the dosage contains 10 mg/kg of lurasidone HCl or the amount of lurasidone equal to 10 mg/kg lurasidone HCl. The number of experimental rats in each group is three, and the sampling time is 0, 0.25, 0.5, 1, 1.5, 2, 4, 6, 8 and 24 hours for analyzing pharmacokinetic results, which are shown in table 15.
# [3] = cited from earlier work
Structure (SMILES),"Solubility ([1]; Table 11, paddle method, 500 mL medium pH 6.0+0.01% SDS, 100 rpm, sampling time 60 minutes, HCl) [µg/mL]","Solubility ([1]; Table 12, carrier comparison PVAP vs crospovidone, method of Example 1.3.1, HCl) [µg/mL]",AUC(0-inf) [2] [ng·h/mL],Cmax [2] [ng/mL],"Solubility ([1]; Table 11, paddle method, 500 mL medium pH 6.0+0.01% SDS, 100 rpm, sampling time 60 minutes) [µg/mL]","Solubility ([1]; Table 12, carrier comparison PVAP vs crospovidone, method of Example 1.3.1) [µg/mL]",solubility in water [3]
O=C1[C@@H]2[C@H]3CC[C@H](C3)[C@@H]2C(=O)N1C[C@@H]1CCCC[C@H]1CN1CCN(c2nsc3ccccc23)CC1 [Lurasidone HCl],0.46,0.46,102,32,,,
O=C1[C@@H]2[C@H]3CC[C@H](C3)[C@@H]2C(=O)N1C[C@@H]1CCCC[C@H]1CN1CCN(c2nsc3ccccc23)CC1 [Lurasidone],,,,,0.09,0.09,lower than 0.1 mg/mL

# Reference: patent publication US20250017859A1, “SOLID DISPERSION, PREPARATION METHOD, AND PHARMACEUTICAL COMPOSITION THEREOF” (Anxo Pharmaceutical Co., Ltd., priority 2023, published 2025)
